For one data set, the system named is HCV Replicon 1b. In words: HCV inhibition assay, HCV replicon 1b (Clone A or ET-lunet cells; RT-PCR or luciferase reporter). The data set is classed as cell-based. The note with it: Hepatitis C virus, 96 h, HCV replicon 1b; 4 days incubation; read-out: Replicon 1b potency EC90. The essentials: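 Clone A (1500/well) or ET-lunet (3000/well) replicon cells treated with serially diluted compounds (0.5% DMSO, no G418) for 4 days at 37 °C. HCV RNA measured by one-step RT-PCR normalized to rRNA (ΔΔCt) or by luciferase luminescence versus DMSO controls; EC50/EC90 by curve fitting.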
In general terms: Replicon systems follow genome replication, usually without infectious particles.

Data set [1] in a line: Cell cytotoxicity assay (MTS), CC90 as reported in Table 1, cell line not stated. The data set is classed as cell-based. The conditions noted are these: human; MTS assay; 8 days incubation; cell line not given. The gist of the method:
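Compounds, serially diluted from 100 μM, were incubated 8 days at 37° C with Huh7, HepG2 or BxPC3 (2×10^3 cells/well) or CEM (5×10^3 cells/well). Viability was read by MTS, 2 h, absorbance 490 nm. CC90 (90% inhibition) was taken against untreated cells.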
In general terms: Tetrazolium assays rely on reduction of a dye to a coloured formazan, in cell work by metabolically active cells.

Usually EC90 stands for the concentration needed for an effect of 90%. Regarding `CC(C)C[C@H]1CCN(C(=O)c2cc(-c3ccc(F)cc3)on2)[C@@H](CC(C)C)C(=O)N1` [Compound 411, (3S,7S)-4-(5-(4-fluorophenyl)isoxazole-3-carbonyl)-3,7-diisobutyl-1,4-diazepan-2-one], the EC90 with HCV Replicon 1b is above 10 µM. The compound further registered a CC90 at 8 days in data set [1] above 10 µM.

As for `CC(C)CC1CNC(=O)[C@H](CC(C)C)N(C(=O)c2cc(-c3ccc(F)cc3)on2)C1` (stereo partly drawn) [Compound 413, (3S)-4-(5-(4-fluorophenyl)isoxazole-3-carbonyl)-3,6-diisobutyl-1,4-diazepan-2-one], the EC90 with HCV Replicon 1b was above 10 µM. The compound further displayed a CC90 at 8 days in data set [1] above 10 µM.

Take `CC(C)C[C@H]1C(=O)N[C@H](c2ccccc2)CCN1C(=O)c1cc(-c2ccc(F)cc2)on1` [Compound 415, (3S,7S)-4-(5-(4-fluorophenyl)isoxazole-3-carbonyl)-3-isobutyl-7-phenyl-1,4-diazepan-2-one]: the EC90 in the data set on HCV Replicon 1b was above 10 µM. The same compound registered a CC90 at 8 days in data set [1] above 10 µM.

Consider `CC(C)C[C@H]1C(=O)N[C@H](c2ccccc2)CCN1C(=O)[C@@H]1C[C@H]1c1ccccc1` [Compound 417, (3S,75)-3-isobutyl-7-phenyl-4-((1R,2R)-2-phenylcyclopropanecarbonyl)-1,4-diazepan-2-one], for which the EC90 in the data set with HCV Replicon 1b was determined as 7.77 µM. The compound further registered a CC90 at 8 days in data set [1] above 10 µM.

Consider `CC(C)C[C@H]1C(=O)NC[C@H](c2ccccc2)CN1C(=O)[C@@H]1C[C@H]1c1ccccc1` [Compound 418, (3S,6S)-3-isobutyl-6-phenyl-4-((1R,2R)-2-phenylcyclopropanecarbonyl)-1,4-diazepan-2-one], for which the EC90 in the data set on HCV Replicon 1b was above 10 µM. Moreover, the CC90 at 8 days in data set [1] was above 10 µM.

In the case of `CC(C)C[C@H]1C(=O)NC[C@H](c2ccccc2)CN1C(=O)c1cc(-c2ccc(F)cc2)on1` [Compound 420, (3S,6S)-3-isobutyl-6-phenyl-4-(5-(4-fluorophenyl)isoxazole-3-carbonyl)-1,4-diazepan-2-one], in the data set on HCV Replicon 1b, the EC90 is above 10 µM. The compound also yielded a CC90 at 8 days in data set [1] above 10 µM.

`CC(C)C[C@H]1CN(C(=O)[C@H]2C[C@@H]2c2ccc(F)cc2F)[C@@H](CC(C)C)C(=O)N1` [Compound 421, (3S,6S)-4-[(1S,2S)-2-(2,4-Difluoro-phenyl)-cyclopropanecarbonyl]-3,6-diisobutyl-piperazin-2-one]: in the data set with HCV Replicon 1b, the EC90 is above 10 µM. In addition, the CC90 at 8 days in data set [1] was above 10 µM.

Turning to `C/C=C/[C@H]1CN(C(=O)[C@@H]2C[C@H]2c2ccccc2)[C@@H](CC(C)C)C(=O)N1` [Compound 422, (3S,6S)-3-isobutyl-4-((1R,2R)-2-phenylcyclopropanecarbonyl)-6-((E)-prop-1-en-1-yl)piperazin-2-one], in the data set with HCV Replicon 1b, the EC90 worked out at 2.1 µM. This compound registered a CC90 at 8 days in data set [1] above 10 µM.

In the case of `CC(C)C[C@H]1C(=O)N[C@H](c2cccs2)CN1C(=O)c1cc(-c2ccc(F)cc2)on1` [Compound 428, (3S,6S)-4-(5-(4-fluorophenyl)isoxazole-3-carbonyl)-3-isobutyl-6-(thiophen-2-yl)piperazin-2-one], the EC90 with HCV Replicon 1b is above 10 µM. The CC90 at 8 days in data set [1] was above 10 µM.

With `CC(C)C[C@H]1C(=O)N[C@@H](c2cccs2)CN1C(=O)c1nc(-c2ccc(F)cc2)no1` [Compound 431, (3S,6R)-4-(3-(4-fluorophenyl)-1,2,4-oxadiazole-5-carbonyl)-3-isobutyl-6-(thiophen-2-yl)piperazin-2-one], in the data set with HCV Replicon 1b, the EC90 amounted to 0.024 µM. For the same compound, in data set [1], the CC90 at 8 days is above 10 µM.

On to `CC(C)C[C@H]1C(=O)N[C@@H](c2cccs2)CN1C(=O)/C=C/c1ccc(F)cc1F` [Compound 434, (3S,6R)-4-((E)-3-(2,4-difluorophenyl)acryloyl)-3-isobutyl-6-(thiophen-2-yl)pipera-zin-2-one], for which the EC90 in the data set with HCV Replicon 1b was 0.048 µM. Further, the CC90 at 8 days in data set [1] is above 10 µM.

Take `CC(C)C[C@H]1C(=O)N[C@@H](c2cccs2)CN1Cc1cc(-c2ccc(F)cc2)on1` [Compound 435, (3S,6R)-4-((5-(4-fluorophenyl)isoxazol-3-yl)methyl)-3-isobutyl-6-(thiophen-2-yl)piperazin-2-one]: the 90% effect concentration (EC90) with HCV Replicon 1b amounted to 0.26 µM. In data set [1], the CC90 at 8 days was above 10 µM.

For `Cc1ccsc1[C@H]1CN(C(=O)[C@@H]2C[C@H]2c2ccc(F)cc2)[C@@H](CC(C)C)C(=O)N1` [Compound 438, (3S,6R)-4-((1R,2R)-2-(4-fluorophenyl)cyclopropanecarbonyl)-3-isobutyl-6-(3-methylthiophen-2-yl)piperazin-2-one], in the data set with HCV Replicon 1b, the EC90 was above 10 µM. This compound returned a CC90 at 8 days in data set [1] above 10 µM.

With `Cc1ccsc1[C@H]1CN(C(=O)c2noc(-c3ccc(F)cc3)n2)[C@@H](CC(C)C)C(=O)N1` [Compound 441, (3S,6R)-4-(5-(4-fluorophenyl)-1,2,4-oxadiazole-3-carbonyl)-3-isobutyl-6-(3-methylthiophen-2-yl)piperazin-2-one], in the data set on HCV Replicon 1b, the EC90 was above 10 µM. Also, in data set [1], the CC90 at 8 days was above 10 µM.

Consider `CC(C)C[C@H]1C(=O)N[C@@H](C2CCC2)CN1C(=O)c1cc(-c2ccc(F)cc2)on1` [Compound 443, (3S,6S)-6-cyclobutyl-4-(5-(4-fluorophenyl)isoxazole-3-carbonyl)-3-isobutylpiperazin-2-one], for which the EC90 with HCV Replicon 1b came out at 0.74 µM. In addition, the CC90 at 8 days in data set [1] is above 10 µM.

Consider `C/C=C/[C@H]1CN(C(=O)c2cc(-c3ccc(F)cc3)no2)[C@@H](CC(C)C)C(=O)N1` [Compound 447, (3S,6S)-4-(3-(4-fluorophenyl)isoxazole-5-carbonyl)-3-isobutyl-6-((E)-prop-1-en-1-yl)piperazin-2-one], for which the 90% effect concentration (EC90) with HCV Replicon 1b was 0.14 µM. Also, the CC90 at 8 days in data set [1] was above 10 µM.

Regarding `C/C=C/[C@H]1CN(C(=O)c2noc(-c3ccc(F)cc3)n2)[C@@H](CC(C)C)C(=O)N1` [Compound 448, (3S,6S)-4-(5-(4-fluorophenyl)-1,2,4-oxadiazole-3-carbonyl)-3-isobutyl-6-((E)-prop-1-en-1-yl)piperazin-2-one], the EC90 with HCV Replicon 1b turned out to be 0.11 µM. This compound also displayed a CC90 at 8 days in data set [1] above 10 µM.

Take `C/C=C/[C@H]1CN(C(=O)/C=C/c2ccc(F)cc2F)[C@@H](CC(C)C)C(=O)N1` [Compound 449, (3S,6S)-4-((E)-3-(2,4-difluorophenyl)acryloyl)-3-isobutyl-6-((E)-prop-1-en-1-yl)piperazin-2-one]: the EC90 with HCV Replicon 1b turned out to be 1.19 µM. This compound also displayed a CC90 at 8 days in data set [1] above 10 µM.

With `CC(C)C[C@H]1C(=O)N[C@@H](c2ccsc2)CN1C(=O)c1cc(-c2ccc(F)cc2)no1` [Compound 450, (3S,6S)-4-(3-(4-fluorophenyl)isoxazole-5-carbonyl)-3-isobutyl-6-(thiophen-3-yl)piperazin-2-one], the EC90 in the data set on HCV Replicon 1b was 0.059 µM. The CC90 at 8 days in data set [1] was above 10 µM.

Turning to `CC(C)C[C@H]1C(=O)N[C@@H](c2ccsc2)CN1C(=O)/C=C/c1ccc(F)cc1F` [Compound 451, (3S,6S)-4-((E)-3-(2,4-difluorophenyl)acryloyl)-3-isobutyl-6-(thiophen-3-yl)piperazin-2-one], the EC90 in the data set with HCV Replicon 1b worked out at 0.125 µM. This compound also returned a CC90 at 8 days in data set [1] above 10 µM.

`C/C=C/[C@H]1CN(C(=O)[C@@H]2C[C@H]2c2ccc(F)cc2)[C@@H](CC(C)C)C(=O)N1` [Compound 452, (3S,6S)-4-((1R,2R)-2-(4-fluorophenyl)cyclopropanecarbonyl)-3-isobutyl-6-((E)-prop-1-en-1-yl)piperazin-2-one]: the EC90 with HCV Replicon 1b was determined as 0.048 µM. The compound also yielded a CC90 at 8 days in data set [1] above 10 µM.

`Cc1ccc([C@H]2CN(C(=O)c3cc(-c4ccc(F)cc4)on3)[C@@H](CC(C)C)C(=O)N2)s1` [Compound 453, (3S,6R)-4-(5-(4-fluorophenyl)isoxazole-3-carbonyl)-3-isobutyl-6-(5-methylthiophen-2-yl)piperazin-2-one]: the EC90 with HCV Replicon 1b was found to be 0.68 µM. In data set [1], the CC90 at 8 days was above 10 µM.

As to `CC(C)C[C@H]1C(=O)NC(C2CCOCC2)CN1C(=O)c1cc(-c2ccc(F)cc2)on1` (stereo partly drawn) [Compound 456, (3S)-4-(5-(4-fluorophenyl)isoxazole-3-carbonyl)-3-isobutyl-6-(tetrahydro-2H-pyran-4-yl)piperazin-2-one], the EC90 with HCV Replicon 1b is 0.194 µM. The same compound had a CC90 at 8 days in data set [1] above 10 µM.

Take `CSC[C@H]1C(=O)N[C@@H](c2ccccc2)CN1C(=O)[C@@H]1C[C@H]1c1ccc(F)cc1` [Compound 460, (3R,6S)-4-((1R,2R)-2-(4-fluorophenyl)cyclopropanecarbonyl)-3-((methylthio)-methyl)-6-phenylpiperazin-2-one]: the EC90 with HCV Replicon 1b turned out to be 1.16 µM. The CC90 at 8 days in data set [1] is above 10 µM.

With `C=CC[C@H]1C(=O)N[C@@H](c2ccccc2)CN1C(=O)[C@@H]1C[C@H]1c1ccc(F)cc1` [Compound 462, (3S,6S)-3-allyl-4-((1R,2R)-2-(4-fluorophenyl)cyclopropanecarbonyl)-6-phenyl-piperazin-2-one], the EC90 with HCV Replicon 1b was 1.52 µM. Also, the CC90 at 8 days in data set [1] is above 10 µM.

As for `CC(C)C[C@H]1C(=O)N[C@@H](C2CCC2)CN1C(=O)[C@@H]1C[C@H]1c1ccc(F)cc1` [Compound 464, (3S,6S)-6-cyclobutyl-4-((1R,2R)-2-(4-fluorophenyl)cyclopropanecarbonyl)-3-isobutylpiperazin-2-one], the EC90 in the data set on HCV Replicon 1b was 0.83 µM. Besides, the CC90 at 8 days in data set [1] is above 10 µM.

Take `C=CC[C@H]1C(=O)N[C@@H](c2ccccc2)CN1C(=O)c1noc(-c2ccc(F)cc2)n1` [Compound 465, (3S,6S)-3-allyl-4-(5-(4-fluorophenyl)-1,2,4-oxadiazole-3-carbonyl)-6-phenyl-piperazin-2-one]: in the data set with HCV Replicon 1b, the EC90 worked out at 0.29 µM. Further, the CC90 at 8 days in data set [1] was above 10 µM.

For the compound `CSC[C@H]1C(=O)N[C@@H](c2ccccc2)CN1C(=O)c1noc(-c2ccc(F)cc2)n1` [Compound 466, (3R,6S)-4-(5-(4-fluorophenyl)-1,2,4-oxadiazole-3-carbonyl)-3-((methylthio)methyl)-6-phenylpiperazin-2-one], in the data set with HCV Replicon 1b, the concentration for an effect of 90% (EC90) came out at 0.65 µM. The compound also had a CC90 at 8 days in data set [1] above 10 µM.

Values taken from US20120202794A1 (priority 2011, published 2012).
